Laboratory results taken from ChEMBL document CHEMBL3046119, “QSAR evaluation of cyanohydrins' fumigation toxicity to house fly (Musca domestica) and lesser grain borer (Rhyzopertha dominica)” (2002).

Experiments:
Musca domestica = experiment: Insecticidal activity against Musca domestica (house fly) after 24 hr; format: functional
Rhyzopertha dominica = experiment: Insecticidal activity against Rhyzopertha dominica after 24 hr; format: functional

Structure (SMILES) | LC50 (Musca domestica) | LC50 (Rhyzopertha dominica)
C=CC(C#N)OC (stereo unspecified) | 4.22 µM | 9.06 µM
C=CC(O)C#N (stereo unspecified) | 0.67 µM | 4.45 µM
CC(O)(C#N)CF (stereo unspecified) | 0.87 µM | 3.2 µM
C=CC(C#N)OC(C)=O (stereo unspecified) [1-CYANOALLYL ACETATE] | 2.08 µM | 2.96 µM
C=CC(C#N)OC(=O)C(C)(C)C (stereo unspecified) [1-CYANOALLYL PIVALATE] | 8.19 µM | 14.4 µM
C=CC(C#N)OC(=O)CC (stereo unspecified) [1-CYANOALLYL PROPIONATE] | 4.74 µM | 5.03 µM
N#CC(O)C1CC1 (stereo unspecified) [CYCLOPROPYLCARBOXALDEHYDE] | 1.54 µM | 4.12 µM
CC(O)(C#N)C1CC1 (stereo unspecified) [CYCLOPROPYLMETHYLKETONE CYANOHYDRIN] | 1.35 µM | 3.6 µM
CC=C(Cl)Cl [DICHLOROPROPENE] | 8.11 µM | 49.3 µM
COP(=O)(OC)OC=C(Cl)Cl [DICHLORVOS] | 0.05 µM | 1.31 µM
CC(C)(O)C#N [DIMETHYLKETONE CYANOHYDRIN] | 0.82 µM | 4.7 µM
CCC(C)(O)C#N (stereo unspecified) [METHYLETHYL KETONE CYANOHYDRIN] | 0.91 µM | 4.14 µM
C=CC(C)(O)C#N (stereo unspecified) [METHYLVINYL KETONE CYANOHYDRIN] | 2.27 µM | 9.47 µM
